Assay results as given in ChEMBL document CHEMBL4052645, “Discovery of potent and efficacious pyrrolopyridazines as dual JAK1/3 inhibitors” (Bioorg Med Chem Lett, 2017).

Key:
[1] = molecular target: Tyrosine-protein kinase CSK (Homo sapiens) (UniProt P41240); test: Inhibition of wild-type human full length CSK (M1 to L450 residues) expressed in bacterial expression system assessed as residual activity at 50 nM by Kinomescan method relative to control
[2] = molecular target: Focal adhesion kinase 1 (Homo sapiens) (UniProt Q05397); test: Inhibition of wild-type human partial length FAK (D402 to R696 residues) expressed in bacterial expression system assessed as residual activity at 50 nM by Kinomescan method relative to control
[3] = molecular target: Ephrin type-B receptor 1 (Homo sapiens) (UniProt P54762); test: Inhibition of wild-type human partial length EPHB1 (P589 to T911 residues) expressed in bacterial expression system assessed as residual activity at 50 nM by Kinomescan method relative to control
[4] = molecular target: Rhodopsin kinase GRK1 (Homo sapiens) (UniProt Q15835); test: Inhibition of wild-type human full length RHOK (M1 to S563 residues) expressed in mammalian expression system assessed as residual activity at 50 nM by Kinomescan method relative to control
[5] = molecular target: Discoidin domain-containing receptor 2 (Homo sapiens) (UniProt Q16832); test: Inhibition of wild-type human partial length DDR2 (V555 to E855 residues) expressed in mammalian expression system assessed as residual activity at 50 nM by Kinomescan method relative to control
[6] = molecular target: Homeodomain-interacting protein kinase 2 (Homo sapiens) (UniProt Q9H2X6); test: Inhibition of wild-type human partial length HIPK2 (M153 to S564 residues) expressed in mammalian expression system assessed as residual activity at 50 nM by Kinomescan method relative to control
[7] = molecular target: Tyrosine-protein kinase Mer (Homo sapiens) (UniProt Q12866); test: Inhibition of wild-type human partial length MER (R557 to L884 residues) expressed in bacterial expression system assessed as residual activity at 50 nM by Kinomescan method relative to control
[8] = molecular target: Tyrosine-protein kinase Fes/Fps (Homo sapiens) (UniProt P07332); test: Inhibition of wild-type human partial length FES (I527 to R822 residues) expressed in bacterial expression system assessed as residual activity at 50 nM by Kinomescan method relative to control
[9] = molecular target: Insulin receptor (Homo sapiens) (UniProt P06213); test: Inhibition of wild-type human partial length INSR (P997 to E1318 residues) expressed in mammalian expression system assessed as residual activity at 50 nM by Kinomescan method relative to control
[10] = tested on: Phosphatidylinositol 4,5-bisphosphate 3-kinase catalytic subunit alpha isoform (Homo sapiens), P42336 [E542K]; test: Inhibition of human partial length PI3KCA E542K mutant (R108 to N1068 residues) expressed in mammalian expression system assessed as residual activity at 50 nM by Kinomescan method relative to control
Chain of Phosphatidylinositol 4,5-bisphosphate 3-kinase catalytic subunit alpha isoform (Homo sapiens), P42336 [E542K] (P42336 whole entry E542K, the tested form may be a part, canonical isoform): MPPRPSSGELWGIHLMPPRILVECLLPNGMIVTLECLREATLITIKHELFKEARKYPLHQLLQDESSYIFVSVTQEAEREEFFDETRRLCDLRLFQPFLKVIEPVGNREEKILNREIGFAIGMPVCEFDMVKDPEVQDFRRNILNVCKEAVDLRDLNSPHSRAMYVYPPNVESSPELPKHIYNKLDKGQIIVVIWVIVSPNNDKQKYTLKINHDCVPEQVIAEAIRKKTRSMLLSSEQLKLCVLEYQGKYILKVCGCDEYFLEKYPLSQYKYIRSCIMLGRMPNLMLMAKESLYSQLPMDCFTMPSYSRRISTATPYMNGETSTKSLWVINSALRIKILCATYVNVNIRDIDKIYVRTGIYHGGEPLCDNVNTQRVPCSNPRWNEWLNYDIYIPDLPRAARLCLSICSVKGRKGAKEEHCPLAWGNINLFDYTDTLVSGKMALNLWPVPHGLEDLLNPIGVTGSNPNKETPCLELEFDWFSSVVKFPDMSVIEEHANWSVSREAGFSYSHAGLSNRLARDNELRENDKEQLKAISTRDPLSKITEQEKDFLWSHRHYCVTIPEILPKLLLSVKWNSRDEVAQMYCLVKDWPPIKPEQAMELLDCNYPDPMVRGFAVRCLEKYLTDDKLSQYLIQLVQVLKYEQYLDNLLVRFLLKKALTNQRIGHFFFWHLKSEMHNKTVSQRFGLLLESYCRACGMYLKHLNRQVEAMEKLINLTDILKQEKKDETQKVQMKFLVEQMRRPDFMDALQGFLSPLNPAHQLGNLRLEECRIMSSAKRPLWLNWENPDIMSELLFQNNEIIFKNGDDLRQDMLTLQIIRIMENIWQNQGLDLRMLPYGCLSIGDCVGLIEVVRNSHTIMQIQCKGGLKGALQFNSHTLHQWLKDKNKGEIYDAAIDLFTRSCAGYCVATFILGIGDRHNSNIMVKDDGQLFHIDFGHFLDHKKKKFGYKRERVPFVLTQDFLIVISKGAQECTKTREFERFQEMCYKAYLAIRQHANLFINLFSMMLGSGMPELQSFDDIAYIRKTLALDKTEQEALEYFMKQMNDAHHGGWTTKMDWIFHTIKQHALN

[11] = molecular target: Membrane-associated tyrosine- and threonine-specific cdc2-inhibitory kinase (Homo sapiens) (UniProt Q99640); test: Inhibition of wild-type human partial length MYT1 (A88 to G366 residues) expressed in bacterial expression system assessed as residual activity at 50 nM by Kinomescan method relative to control
[12] = molecular target: Serine/threonine-protein kinase TBK1 (Homo sapiens) (UniProt Q9UHD2); test: Inhibition of wild-type human full length TBK1 (M1 to L729 residues) expressed in mammalian expression system assessed as residual activity at 50 nM by Kinomescan method relative to control
[13] = molecular target: Serine/threonine-protein kinase N1 (Homo sapiens) (UniProt Q16512); test: Inhibition of human PKN1 (E598 to C948 residues) expressed in bacterial expression system assessed as residual activity at 50 nM by KINOMEscan assay relative to control
Chain of Serine/threonine-protein kinase N1 (Homo sapiens) (Q16512 2-942 limits assumed): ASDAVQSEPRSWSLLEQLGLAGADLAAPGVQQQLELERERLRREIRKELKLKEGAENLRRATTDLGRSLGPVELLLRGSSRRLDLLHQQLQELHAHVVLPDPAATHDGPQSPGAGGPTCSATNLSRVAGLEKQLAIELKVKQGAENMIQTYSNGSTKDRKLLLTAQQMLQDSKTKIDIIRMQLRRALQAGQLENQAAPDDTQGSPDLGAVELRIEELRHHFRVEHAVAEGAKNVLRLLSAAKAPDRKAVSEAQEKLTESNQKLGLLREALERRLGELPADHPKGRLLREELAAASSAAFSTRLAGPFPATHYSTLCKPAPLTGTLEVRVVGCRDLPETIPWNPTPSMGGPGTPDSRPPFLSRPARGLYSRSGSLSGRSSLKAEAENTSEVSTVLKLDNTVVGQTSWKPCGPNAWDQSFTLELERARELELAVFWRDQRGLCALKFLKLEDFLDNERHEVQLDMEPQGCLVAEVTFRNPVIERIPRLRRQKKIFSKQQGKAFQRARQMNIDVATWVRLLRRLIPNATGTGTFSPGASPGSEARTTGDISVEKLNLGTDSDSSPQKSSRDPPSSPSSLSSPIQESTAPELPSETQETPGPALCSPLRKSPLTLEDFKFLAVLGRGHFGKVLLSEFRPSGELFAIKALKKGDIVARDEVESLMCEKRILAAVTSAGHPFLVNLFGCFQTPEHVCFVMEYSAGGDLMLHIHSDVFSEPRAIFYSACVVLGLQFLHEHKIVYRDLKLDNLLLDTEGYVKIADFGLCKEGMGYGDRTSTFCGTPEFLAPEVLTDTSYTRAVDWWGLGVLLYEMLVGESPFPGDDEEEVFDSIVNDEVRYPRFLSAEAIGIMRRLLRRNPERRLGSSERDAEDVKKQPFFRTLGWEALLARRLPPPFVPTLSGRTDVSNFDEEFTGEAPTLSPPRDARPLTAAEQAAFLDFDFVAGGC

[14] = molecular target: Mitogen-activated protein kinase 13 (Homo sapiens) (UniProt O15264); test: Inhibition of wild-type human full length p38-delta (M1 to L365 residues) expressed in bacterial expression system assessed as residual activity at 50 nM by Kinomescan method relative to control
Chain of Mitogen-activated protein kinase 13 (Homo sapiens) (O15264 whole entry, the tested form may be a part): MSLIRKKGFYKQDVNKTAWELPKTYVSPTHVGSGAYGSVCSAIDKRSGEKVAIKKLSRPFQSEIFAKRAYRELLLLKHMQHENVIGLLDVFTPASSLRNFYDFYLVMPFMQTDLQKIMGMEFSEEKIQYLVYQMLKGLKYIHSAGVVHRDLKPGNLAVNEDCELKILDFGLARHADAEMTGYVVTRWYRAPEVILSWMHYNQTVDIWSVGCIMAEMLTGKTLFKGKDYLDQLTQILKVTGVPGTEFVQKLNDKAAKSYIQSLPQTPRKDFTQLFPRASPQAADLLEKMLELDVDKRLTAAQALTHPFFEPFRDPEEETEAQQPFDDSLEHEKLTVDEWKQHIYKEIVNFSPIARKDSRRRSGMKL

[15] = molecular target: Protein kinase C eta type (Homo sapiens) (UniProt P24723); test: Inhibition of wild-type human partial length PKCH (S324 to P683 residues) expressed in bacterial expression system assessed as residual activity at 50 nM by Kinomescan method relative to control
[16] = molecular target: Ribosomal protein S6 kinase alpha-3 (Homo sapiens) (UniProt P51812); test: Inhibition of wild-type human partial length N-terminal RSK2 kinase domain 1 (M1 to D394 residues) expressed in mammalian expression system assessed as residual activity at 50 nM by Kinomescan method relative to control
[17] = molecular target: Serine/threonine-protein kinase PAK 5 (Homo sapiens) (UniProt Q9P286); test: Inhibition of wild-type human partial length PAK5 (Y400 to H719 residues) expressed in bacterial expression system assessed as residual activity at 50 nM by Kinomescan method relative to control
Chain of Serine/threonine-protein kinase PAK 5 (Homo sapiens) (Q9P286 whole entry, looked up, the tested form may be a part, canonical isoform): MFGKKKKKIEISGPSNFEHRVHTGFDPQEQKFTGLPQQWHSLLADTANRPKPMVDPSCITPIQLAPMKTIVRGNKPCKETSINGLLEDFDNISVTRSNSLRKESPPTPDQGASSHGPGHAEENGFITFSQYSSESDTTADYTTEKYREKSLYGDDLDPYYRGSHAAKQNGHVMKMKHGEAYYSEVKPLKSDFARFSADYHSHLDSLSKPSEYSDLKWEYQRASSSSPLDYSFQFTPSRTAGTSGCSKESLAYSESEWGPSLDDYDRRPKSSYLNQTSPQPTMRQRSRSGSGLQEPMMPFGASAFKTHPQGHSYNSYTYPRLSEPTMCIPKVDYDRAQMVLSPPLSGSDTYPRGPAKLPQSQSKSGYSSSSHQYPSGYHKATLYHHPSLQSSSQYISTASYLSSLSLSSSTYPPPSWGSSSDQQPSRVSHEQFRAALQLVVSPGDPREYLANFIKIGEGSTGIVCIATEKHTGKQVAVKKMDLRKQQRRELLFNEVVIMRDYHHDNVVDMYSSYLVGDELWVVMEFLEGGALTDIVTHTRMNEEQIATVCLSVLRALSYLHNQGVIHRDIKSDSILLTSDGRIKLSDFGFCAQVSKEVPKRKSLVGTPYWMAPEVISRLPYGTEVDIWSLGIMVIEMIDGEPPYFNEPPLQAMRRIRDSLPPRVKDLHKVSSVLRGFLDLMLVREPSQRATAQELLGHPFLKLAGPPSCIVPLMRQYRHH

[18] = molecular target: Casein kinase I isoform delta (Homo sapiens) (UniProt P48730); test: Inhibition of wild-type human full length CK1D (M1 to K409 residues) expressed in bacterial expression system assessed as residual activity at 50 nM by Kinomescan method relative to control
[19] = molecular target: Tyrosine-protein kinase JAK1 (Homo sapiens, UniProt P23458); test: Inhibition of GST-tagged JAK1 (unknown origin) after 3 hrs by Caliper assay
[20] = molecular target: Casein kinase II subunit alpha (Homo sapiens) (UniProt P68400); test: Inhibition of wild-type human full length CK2A1 (M1 to Q391 residues) expressed in mammalian expression system assessed as residual activity at 50 nM by Kinomescan method relative to control
[21] = molecular target: Dual specificity testis-specific protein kinase 1 (Homo sapiens) (UniProt Q15569); test: Inhibition of wild-type human full length TESK1 (R37 to S626 residues) expressed in bacterial expression system assessed as residual activity at 50 nM by Kinomescan method relative to control
[22] = molecular target: Mitogen-activated protein kinase kinase kinase kinase 2 (Homo sapiens) (UniProt Q12851); test: Inhibition of human GCK (M1 to G318 residues) expressed in mammalian expression system assessed as residual activity at 50 nM by KINOMEscan assay relative to control
Chain of Mitogen-activated protein kinase kinase kinase kinase 2 (Homo sapiens) (Q12851 whole entry, the tested form may be a part): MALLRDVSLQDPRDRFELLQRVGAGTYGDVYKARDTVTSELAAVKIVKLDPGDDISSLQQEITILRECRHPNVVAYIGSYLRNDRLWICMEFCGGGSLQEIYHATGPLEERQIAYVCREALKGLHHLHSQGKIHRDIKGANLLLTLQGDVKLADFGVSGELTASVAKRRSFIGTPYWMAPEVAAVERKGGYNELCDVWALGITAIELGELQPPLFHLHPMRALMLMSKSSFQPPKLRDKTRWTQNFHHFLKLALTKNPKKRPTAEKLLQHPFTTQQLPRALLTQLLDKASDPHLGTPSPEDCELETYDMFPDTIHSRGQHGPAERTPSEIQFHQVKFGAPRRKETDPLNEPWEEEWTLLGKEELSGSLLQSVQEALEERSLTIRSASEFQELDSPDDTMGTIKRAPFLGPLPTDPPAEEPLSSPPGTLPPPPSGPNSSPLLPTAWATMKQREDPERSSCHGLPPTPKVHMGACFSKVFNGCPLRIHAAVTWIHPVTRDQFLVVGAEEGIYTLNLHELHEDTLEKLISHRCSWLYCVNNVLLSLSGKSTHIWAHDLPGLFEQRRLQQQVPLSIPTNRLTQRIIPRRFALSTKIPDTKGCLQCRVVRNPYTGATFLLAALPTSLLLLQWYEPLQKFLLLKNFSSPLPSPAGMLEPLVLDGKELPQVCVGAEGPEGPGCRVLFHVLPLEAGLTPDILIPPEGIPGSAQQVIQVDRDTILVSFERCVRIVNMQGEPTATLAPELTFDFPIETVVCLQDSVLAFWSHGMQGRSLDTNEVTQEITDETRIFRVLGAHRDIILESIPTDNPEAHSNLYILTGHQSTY

[23] = molecular target: Cyclin-dependent kinase 5 (Homo sapiens) (UniProt Q00535); test: Inhibition of wild-type human full length CDK5 (M1 to P292 residues) expressed in bacterial expression system assessed as residual activity at 50 nM by Kinomescan method relative to control
[24] = molecular target: Myosin light chain kinase (Homo sapiens) (UniProt Q32MK0); test: Inhibition of wild-type human partial length CAMLCK (D488 to K800 residues) expressed in bacterial expression system assessed as residual activity at 50 nM by Kinomescan method relative to control
Chain of Myosin light chain kinase (Homo sapiens) (Q32MK0 whole entry, the tested form may be a part): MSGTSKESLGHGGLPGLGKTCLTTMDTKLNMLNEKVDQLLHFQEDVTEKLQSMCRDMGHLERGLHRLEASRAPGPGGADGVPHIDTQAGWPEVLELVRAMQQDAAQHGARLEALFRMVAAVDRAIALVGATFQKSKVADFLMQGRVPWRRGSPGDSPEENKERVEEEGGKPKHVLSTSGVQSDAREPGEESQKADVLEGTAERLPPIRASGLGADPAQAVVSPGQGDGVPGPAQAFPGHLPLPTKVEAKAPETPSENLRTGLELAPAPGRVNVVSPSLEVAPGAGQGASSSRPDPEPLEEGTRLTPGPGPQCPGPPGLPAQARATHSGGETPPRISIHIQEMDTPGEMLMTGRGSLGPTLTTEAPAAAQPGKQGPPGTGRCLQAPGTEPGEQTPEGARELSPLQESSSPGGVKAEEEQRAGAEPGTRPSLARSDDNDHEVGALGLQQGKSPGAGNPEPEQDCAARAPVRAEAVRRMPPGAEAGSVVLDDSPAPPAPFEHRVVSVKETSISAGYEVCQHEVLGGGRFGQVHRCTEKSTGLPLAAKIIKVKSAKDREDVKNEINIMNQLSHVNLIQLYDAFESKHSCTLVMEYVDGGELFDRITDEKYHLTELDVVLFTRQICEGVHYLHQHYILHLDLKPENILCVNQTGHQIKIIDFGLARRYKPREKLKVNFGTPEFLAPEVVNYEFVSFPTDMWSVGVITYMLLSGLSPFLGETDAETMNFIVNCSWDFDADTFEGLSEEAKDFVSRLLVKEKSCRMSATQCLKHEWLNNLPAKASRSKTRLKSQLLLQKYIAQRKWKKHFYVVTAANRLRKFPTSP

[25] = molecular target: Serine/threonine-protein kinase N2 (Homo sapiens) (UniProt Q16513); test: Inhibition of human PKN2 (E634 to C948 residues) expressed in bacterial expression system assessed as residual activity at 50 nM by KINOMEscan assay relative to control
[26] = molecular target: Serine/threonine-protein kinase Nek7 (Homo sapiens) (UniProt Q8TDX7); test: Inhibition of wild-type human full length NEK7 (M1 to S302 residues) expressed in bacterial expression system assessed as residual activity at 50 nM by Kinomescan method relative to control
Chain of Serine/threonine-protein kinase Nek7 (Homo sapiens) (Q8TDX7 whole entry, looked up, the tested form may be a part): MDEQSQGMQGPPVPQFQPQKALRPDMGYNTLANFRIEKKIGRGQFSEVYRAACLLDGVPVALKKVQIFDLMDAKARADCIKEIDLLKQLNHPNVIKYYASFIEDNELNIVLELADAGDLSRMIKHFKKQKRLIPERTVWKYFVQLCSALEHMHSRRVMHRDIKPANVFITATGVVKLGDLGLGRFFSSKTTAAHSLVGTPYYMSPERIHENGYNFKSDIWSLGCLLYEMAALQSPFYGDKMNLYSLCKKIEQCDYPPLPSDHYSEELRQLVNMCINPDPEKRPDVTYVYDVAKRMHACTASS

Row | Compound | Activity [1] [%] | Activity [2] [%] | Activity [3] [%] | Activity [4] [%] | Activity [5] [%] | Activity [6] [%] | Activity [7] [%] | Activity [8] [%] | Activity [9] [%] | Activity [10] [%] | Activity [11] [%] | Activity [12] [%] | Activity [13] [%] | Activity [14] [%] | Activity [15] [%] | Activity [16] [%] | Activity [17] [%] | Activity [18] [%] | IC50 [19] [nM] | Activity [20] [%] | also measured
1 | CC1(C)[C@H](Nc2c(C(N)=O)cnn3cc(-c4ccccc4)cc23)CC[C@]1(C)N | 100 | 88 | 100 | 100 | 100 | 97 | 100 | 100 | 94 | 100 | 79 | 90 | 0.3 | 100 | 49 | 47 | 50 | 98 | 0.4 | 56 | Activity [21]: 100%; Activity [22]: 3.6%; Activity [23]: 94%; Activity [24]: 100%; Activity [25]: 3%; Activity [26]: 100%
2 | COc1ccc(-c2cc3c(N[C@@H]4CC[C@](C)(N)C4(C)C)c(C(N)=O)cnn3c2)cn1 | 100 | 88 | 88 | 100 | 100 | 100 | 100 | 98 | 72 | 100 | 100 | 97 | 7 | 100 | 70 | 74 | 68 | 100 | 1.9 | 100 | Activity [21]: 84%; Activity [22]: 26%; Activity [23]: 92%; Activity [24]: 100%; Activity [25]: 27%; Activity [26]: 100%
